Measurements reported in patent publication US20260125352A1, “PROCESSES FOR CONVERTING FURFURALS” (Origin Materials Operating, Inc., priority 2023, published 2026).

Experiment: Solubility of amine and their hydrochlorides in solvents at room temperature
Assay type: physicochemical
Settings: for Solubility of amines in acetone / Solubility of amines in methanol / Solubility of amines in methylfurfural (MF) / Solubility of amines in propylene carbonate / Solubility of amines in toluene / Solubility of amines in water: free amine, low values at saturation; for Solubility of amines in acetone / Solubility of amine hydrochloride salts in acetone: acetone μ = 20.7, high values not necessarily at saturation; for Solubility of amines in methanol / Solubility of amine hydrochloride salts in methanol: methanol μ = 32.7, high values not necessarily at saturation; for Solubility of amines in methylfurfural (MF) / Solubility of amine hydrochloride salts in methylfurfural (MF): methylfurfural (MF) μ = 41.9, high values not necessarily at saturation; for Solubility of amines in propylene carbonate / Solubility of amine hydrochloride salts in propylene carbonate: propylene carbonate μ = 64.9, high values not necessarily at saturation; for Solubility of amines in toluene / Solubility of amine hydrochloride salts in toluene: toluene μ = 2.4, high values not necessarily at saturation; for Solubility of amines in water / Solubility of amine hydrochloride salts in water: water μ = 78.4, high values not necessarily at saturation; for Solubility of amine hydrochloride salts in acetone / Solubility of amine hydrochloride salts in methanol / Solubility of amine hydrochloride salts in methylfurfural (MF) / Solubility of amine hydrochloride salts in propylene carbonate / Solubility of amine hydrochloride salts in toluene / Solubility of amine hydrochloride salts in water: hydrochloride salt of the amine precursor

Solubility of amines in acetone [wt. %]	Solubility of amines in methanol [wt. %]	Solubility of amines in methylfurfural (MF) [wt. %]	Solubility of amines in propylene carbonate [wt. %]	Solubility of amines in toluene [wt. %]	Solubility of amines in water [wt. %]	Solubility of amine hydrochloride salts in acetone [wt. %]	Solubility of amine hydrochloride salts in methanol [wt. %]	Solubility of amine hydrochloride salts in methylfurfural (MF) [wt. %]	Solubility of amine hydrochloride salts in propylene carbonate [wt. %]	Solubility of amine hydrochloride salts in toluene [wt. %]	Solubility of amine hydrochloride salts in water [wt. %]	SMILES
49.20	49.11	14.35	4.59	46.90	0.30	15.01	33.08	26.83	34.05	<4.91	33.39	CCN(C(C)C)C(C)C [Hunig's base]
49.87	9.27	2.49	0.17	47.61	0.00	–	–	–	–	–	–	CCCCCN(CCCCC)CCCCC [triamylamine]
–	–	–	–	–	–	34.35	47.15	24.44	31.21	51.82	25.88	CC(C)CN(CC(C)C)CC(C)C [triisobutylamine, 2-methyl-N,N-bis(2-methylpropyl)propan-1-amine]
–	–	–	–	–	47.16	<0.09	34.66	<0.13	<1.16	<0.12	38.39	CN(C)C [trimethylamine]
